Test results as given in US7897723B2, “ErbB receptor-derived peptide fragments” (Københavns Universitet, priority 2006, dated 2011).
Bridges are numbered along the chain shown (N, C = ends). Roman numbers before positions name the chains, in order. Where no end group is shown, it is not given here.

Columns and labels:
L929 cells = test: Cell proliferation (BrdU incorporation); assay type: cell-based; conditions: L929 cells
Protocol: 2000 L929 cells (ECACC no: 85011425) per well were seeded in a 96 well plate in full medium (containing 10% foetal calf serum) or starvation medium (serum-free). Peptides, ErbB1 kinase inhibitor PD153035 (Calbiochem), and EGF (Sigma-Aldrich) were added immediately after seeding of the cells (for experiments done in full serum) or after 8 hours of incubation (for experiments done in starvation medium) in the concentrations indicated in figures. Cells were grown for 6 hours, then 10 μM bromodeoxyuridine (BrdU) was added, and cells were grown for additional 18 hours. Then, BrdU incorporation in the cells was assayed using the Biotrak ELISA System, version 2 from Amersham Biosciences Europe GmbH (Buckinghamshire, UK) following the manufacturer's protocol.

ErbB1 = ErbB1 (Homo sapiens, UniProt P00533); test: ErbB receptor phosphorylation, HN5 cells; assay type: cell-based; parameters: the ErbB1 overexpressing human head and neck cancer cell line HN5; endogenous in cells; host or cells: HN5 human head and neck cancer cells; conditions: 100 μM peptide for 30 min, 10 ng/ml EGF for 10 min (FIG. 8)
Protocol: The cells employed for this assay were NR6 wtEGFR cells, which are fibroblastoid cells stably transfected with ErbB1, and human head and neck tumor-derived HN5 cell. Confluent NR6 wtEGFR or HN5 cells were treated with peptide in the indicated concentrations for 30 min, then stimulated with 10 ng/ml EGF (Sigma-Aldrich, St. Louis, Mo., USA) for 10 min. Cells were lysed in lysis buffer (1% (v/v) Triton X-100, 150 mM NaCl, 10 mM Tris pH 7.4, 1 mM EDTA, 1 mM EGTA, 0.5% (v/v) NP-40, phosphatase inhibitors (Phosphatase Inhibitor Cocktail Set II from Calbiochem, La Jolla, Calif., USA) and protease inhibitors (Complete™ Protease Inhibitor Cocktail from Boehringer Mannheim Biochemica, Mannheim, Germany)), and cleared lysate samples containing equal amounts of total protein (as determined by a bicinchoninic acid assay (Pierce, Rockford, Ill., USA)) were subjected in duplicates to 4-12% SDS-PAGE and immunoblotting. One membrane was probed with anti-phospho-EGFR (phosphotyrosine 1068) antibody (Cell Signaling Technology, Danvers, Mass., USA), the other with anti-EGFR antibody (Cell Signaling Technology). Detection was carried out using horseradish peroxidase (HRP)-conjugated secondary antibodies (DAKO, Denmark) and enhanced chemiluminiscence (Pierce). The intensity of bands was quantified using densitometric analysis employing the software package GeneTools (Syngene, Cambridge, UK).

[1] = biological target: T1, extracellular part of human ErbB4 (Fc chimeric protein) (Homo sapiens, UniProt Q15303); test: Surface plasmon resonance (SPR) binding analysis, ErbB4; conditions: peptide immobilized on sensor chip, mean ± SEM
T1 construct: the Fc protein fused to the extracellular parts of human ErbB2, ErbB3 or ErbB4; purchased R&D Systems Europe (Abingdon, UK)
T1 sequence (Q15303 26-651 limits assumed): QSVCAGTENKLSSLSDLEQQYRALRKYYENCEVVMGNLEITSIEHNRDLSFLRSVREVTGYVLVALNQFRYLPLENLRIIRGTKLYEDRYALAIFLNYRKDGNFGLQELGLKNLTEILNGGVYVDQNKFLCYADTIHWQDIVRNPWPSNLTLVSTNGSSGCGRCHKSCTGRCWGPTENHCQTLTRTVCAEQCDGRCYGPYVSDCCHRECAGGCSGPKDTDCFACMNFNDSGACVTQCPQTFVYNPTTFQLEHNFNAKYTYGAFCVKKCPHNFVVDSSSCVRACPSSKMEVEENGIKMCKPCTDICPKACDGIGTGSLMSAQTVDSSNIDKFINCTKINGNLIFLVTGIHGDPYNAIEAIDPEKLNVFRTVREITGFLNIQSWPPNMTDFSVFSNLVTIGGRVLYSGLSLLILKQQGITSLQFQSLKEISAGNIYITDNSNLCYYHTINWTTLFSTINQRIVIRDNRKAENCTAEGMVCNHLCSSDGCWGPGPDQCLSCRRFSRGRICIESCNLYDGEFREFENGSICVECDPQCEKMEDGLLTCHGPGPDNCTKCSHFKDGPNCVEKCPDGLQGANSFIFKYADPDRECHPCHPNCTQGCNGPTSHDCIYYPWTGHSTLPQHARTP
Protocol: (§1) Binding analyses were performed with the surface plasmon resonance (SPR)-based biosensor instrument BIAcore2000 (BIAcore AB, Uppsala, Sweden), at 25° C. using ready-made HBS-EP buffer (BIAcore AB) as running buffer. Peptides were immobilized on the surface of a CM5 sensor chip (BIAcore AB) using an amine coupling kit (Biosensor AB, Uppsala, Sweden) according to the manufacturer's instructions, at a flow rate of 5 μl/min. Briefly, carboxyl groups on the sensor chip surface were activated by injection of 35 μl activation solution followed by injection of peptide (50 μg/ml peptide in HBS-EP buffer, pH 7.4) until the desired level of immobilized peptide was reached. Unreacted peptide was washed out and unreacted activated groups were blocked by the injection of 35 μl 1 M ethanolamine. […] A reference surface was generated simultaneously under the same conditions but without peptide injection and used as a blank chip control. ErbB receptor proteins were injected at various concentrations at a flow rate of 20 μl/min, and binding to the peptides immobilized on the chip was measured in real-time. The curve corresponding to the difference between signals on flow cells with immobilized peptide and the signal on the blank flow cell was used for analysis. […] Data were analyzed by nonlinear curve fitting using the manufacturer' software. […]

[2] = biological target: T2, extracellular part of human ErbB2 (Fc chimeric protein) (Homo sapiens, UniProt P04626); test: Surface plasmon resonance (SPR) binding analysis, ErbB2; conditions: peptide immobilized on sensor chip, mean ± SEM
T2 construct: the Fc protein fused to the extracellular parts of human ErbB2, ErbB3 or ErbB4; purchased R&D Systems Europe (Abingdon, UK)
Protocol: as §1

HN5 cells = test: Cell viability / cell growth (MTS staining); assay type: cell-based, human; conditions: absence and presence of EGF, absence and presence of serum (FIGS. 6A and B)
Protocol: 2000 HN5 cells per well were seeded in a 96 well plate in full medium (containing 10% fetal calf serum) or starvation medium (serum-free). After 12 hours of incubation, peptides or ErbB1 kinase inhibitor PD153035 (Calbiochem) and/or EGF (Sigma-Aldrich) were added in the concentrations indicated in figures. Cells were grown for 72 hours, then 20 μl MTS One Solution Reagent (Promega, Madison, Wis., USA) were added per 100 μl culture medium in each well, and the plates were incubated for 1-2 hours at 37° C., followed by absorbance measurements at 490 nm.

[3] = full medium, BrdU incorporation (FIG. 2, FIG. 3)
[4] = starvation medium, 10 or 100 ng/ml EGF, BrdU incorporation (FIG. 4)

T2 sequence (P04626 23-652 limits assumed, change not shown): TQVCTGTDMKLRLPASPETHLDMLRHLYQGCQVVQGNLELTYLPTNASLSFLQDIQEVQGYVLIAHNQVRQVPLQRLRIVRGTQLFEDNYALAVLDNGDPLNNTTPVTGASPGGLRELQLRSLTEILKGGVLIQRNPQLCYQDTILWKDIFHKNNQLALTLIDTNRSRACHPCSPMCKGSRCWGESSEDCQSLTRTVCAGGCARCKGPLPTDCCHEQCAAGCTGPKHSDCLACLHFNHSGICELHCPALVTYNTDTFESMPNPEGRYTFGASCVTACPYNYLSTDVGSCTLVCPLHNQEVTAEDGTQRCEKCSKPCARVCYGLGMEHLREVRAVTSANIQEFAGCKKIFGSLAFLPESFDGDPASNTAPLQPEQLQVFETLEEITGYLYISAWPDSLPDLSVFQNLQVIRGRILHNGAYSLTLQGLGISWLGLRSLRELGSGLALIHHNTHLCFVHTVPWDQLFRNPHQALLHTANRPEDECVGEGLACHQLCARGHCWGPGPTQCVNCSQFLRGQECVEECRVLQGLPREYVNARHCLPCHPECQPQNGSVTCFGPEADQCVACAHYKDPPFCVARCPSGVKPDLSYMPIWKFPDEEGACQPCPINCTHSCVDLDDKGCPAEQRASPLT

Compound	effect on EGF-induced cell proliferation (L929 cells; [3])	effect on EGF-induced cell proliferation (L929 cells; [4])	KD for binding to ErbB4 [1]	KD for binding to ErbB2 [2]	effect on HN5 cell growth (HN5 cells)	further results
Inherbin3n: truncated peptide constituting the N-terminal half of the Inherbin3 peptide (possibly B3dln, SEQ ID NO: 36) (PLVYNKLT; B3dln peptide)	inhibited EGF-induced cell proliferation to the same extent as Inherbin3	–	–	–	–	–
VTYNTDTFESMPNPEGR (Inherbin 2 peptide) [Inherbin2]	able to inhibit EGF-induced cell proliferation significantly	–	–	–	–	effect on EGF-induced ErbB1 phosphorylation (ErbB1): not statistically significant
I: LVYNKLTFQLEPNPHTKKK / II: LVYNKLTFQLEPNPHTKK / III: LVYNKLTFQLEPNPHTK / IV: LVYNKLTFQLEPNPHTK (amide I:18-IV:C, I:19-II:C, II:18-III:C) [Inherbin3d]	–	inhibited EGF-induced cell proliferation	No binding	No binding	–	peptide doses that significantly inhibited cell proliferation (L929 cells; proliferation induced by either 10 or 100 ng/ml EGF (FIG. 4)): ≥ 0.6 µM
COc1cc2ncnc(Nc3cccc(Br)c3)c2cc1OC [PD153035, reference compound]	–	blocked cell proliferation induced by stimulation with either 10 or 100 ng/ml EGF	–	–	strongly inhibited growth of the cells both in absence and presence of EGF-stimulation and in the absence and presence of serum	–
KHKLPYNFNLETTVQPL (also: tetrameric dendrimer on lysine backbone) [Scr-Inherbin3d, reference compound]	–	–	–	–	no significant effects on HN5 cell growth	–
I: H-MLYNPTTYQMDVNPEGKKK / II: H-MLYNPTTYQMDVNPEGKK / III: H-MLYNPTTYQMDVNPEGK / IV: H-MLYNPTTYQMDVNPEGK (amide I:18-IV:C, I:19-II:C, II:18-III:C) [Inherbin 1DL, MLYNPTTYQMDVNPEGK]	–	–	No binding	No binding	–	–
